# Starred links: 1 amine or outer side, 2 acyl side, 3 side chain; linkers in the order of their positions; H or OH if unused. Suc = O=C(CCC(=O)[*:2])[*:1]
# Legend:
# [1] = test system: A549 cells; assay: Cytotoxicity in A549 cells in the presence of biotin (biotin receptor competition); type: cell-based, human
# Description: To explore the contribution of biotin receptor to the transport of biotin conjugates, Deac-SS-Biotin (9) and biotin were evaluated for the antiproliferative activity against A549 cells.
# Figure 6. In vitro cytotoxicity of biotin, Deac (13), and Deac-SS-Biotin (9) in A549 cells. Cytotoxicity of biotin, Deac + biotin, and Deac-SS-Biotin + biotin in A549 cells (n = 3).
# (§1) 24 h later, triplicate wells were treated with media and the compounds being tested. After 72 h of incubation at 37 °C in 5% CO2, the drug-containing medium was removed and replaced with […] of fresh medium containing 5 mg/mL MTT solution. After 4 h of incubation, the medium with MTT was removed, and […] of dimethyl sulfoxide (DMSO) was added to each well. The plates were gently agitated until the purple formazan crystals were dissolved, and the OD490 values were determined using a microplate reader (MK3, Thermo, Germany). The data were calculated and plotted as the percent viability compared to the control.
# [2] = Physiological stability by HPLC analysis; type: physicochemical; conditions: 5 µM; water, PBS, and cell culture fluid; 72 h incubation, room temperature
# Description: Figure 4. Stabilities of Deac-SS-Biotin (9, 5 µM) in water, and PBS cell culture fluid were investigated by HPLC analysis. (A) HPLC analysis of Deac-SS-Biotin (9) in water after incubation for and 72 h; (B) HPLC analysis of Deac-SS-Biotin (9) in PBS after incubation for and 72 h; (C) HPLC analysis of Deac-SS-Biotin (9) in cell culture fluid after incubation for and 72 h.
# To 8 ml of water, PBS, or cell culture fluid, 2 ml of DMSO stock solution of Deac-SS-Biotin was added. The mixture was incubated with gentle shaking for 72 h at room temperature during which the mixture was measured by HPLC spectra.
# [3] = In vitro release of Deac from biotin conjugates with DTT (HPLC); type: physicochemical; conditions: 5 μM conjugate
# Description: To investigate the mechanism of GSH-triggered drug release, the in vitro drug release profiles of Deac-SS-Biotin (9) and Deac-Biotin (10) were investigated using DTT (Glutathione mimetic). As shown in Figure 5(A), almost none of Deac was released from Deac-SS-Biotin (9) within 24 h in blank PBS (pH 7.2–7.4, without DTT), and more than 70% of Deac was released within 8 h in the presence of 5, 10, and 20 μM DTT. By contrast, there was negligible Deac (<1.0%) released from Deac-Biotin (10) after 24 h incubation in the presence or absence of 20 μM DTT (Figure 5(B)). […] Furthermore, Deac release from the Deac-SS-Biotin (9) at 10 μM DTT was also investigated by HPLC analysis (Figure 5(C)). Free Deac-SS-Biotin (9) was eluted at 10.8 min in HPLC chromatogram. As 10 μM DTT was added to Deac-SS-Biotin (9), it was sheared by DTT. As chemical reaction involved, this scission was subjected to intramolecular cyclisation, followed by ring-forming condensation, resulting in the liberation of Deac. The peak at 14.3 min appeared accompanied by the disappearance of Deac-SS-Biotin (9), and well-matched with free Deac.
# Figure 5. In vitro release of Deac from prodrugs. (A) Release profiles of Deac from Deac-SS-Biotin (9, 5 μM) with 0 μM, 5 μM, 10 μM and 20 μM DTT in PBS (pH 7.2–7.4) (n = 3). (B) Release profiles of Deac from Deac-Biotin (10, 5 μM) with 0 μM, 5 μM, 10 μM and 20 μM DTT in PBS (pH 7.2–7.4) (n = 3). (C) HPLC spectra of Deac-SS-Biotin (9, 5 μM) with 10 μM DTT at 0 and 24 h.
# The release of Deac from Deac-SS-Biotin was studied in PBS (pH 7.2–7.4) containing 20% DMSO with 0, 5, 10, or 20 μM, dithiothreitol (DTT), respectively. Briefly, biotin-conjugates (5 μM) were incubated in 10 ml of release medium at 37 °C. At timed intervals, 0.1 ml of sample was withdrawn, and the content of Deac, Deac-Biotin, and Deac-SS-Biotin was determined by HPLC (HPLC-LC-20AT, Shimadzu using SPD-20A UV as the detector, C18 (4.6 × 250 mm, […]) as HPLC analysis column. Method: gradient: 45% methanol in water as mobile elution, flow rate: 1.0 ml min^-1). The UV detector was kept at 254 nm.
# [4] = test system: lung adenocarcinoma A549 cells; type: cell-based, human; conditions: MTT, 72 h incubation; read-out: IC50 (μM) ± SD A549
# Description: (§2) All cell lines were purchased from the American Type Culture Collection (ATCC, Manassas, VA)[29].
# as §1
# [5] = test system: gastric adenocarcinoma SGC-7901 cells; type: cell-based, human; conditions: MTT, 72 h incubation; read-out: IC50 (μM) ± SD SGC-7901
# Description: as §2, §1
# [6] = test system: cervical carcinoma HeLa cells; type: cell-based, human; conditions: MTT, 72 h incubation; read-out: IC50 (μM) ± SD Hela
# Description: as §2, §1
# [7] = biological target: porcine brain tubulin (Sus scrofa, UniProt P02550+P02554)
# Description: To examine the biological mechanism of biotin conjugates, Deac-SS-Biotin (9) was evaluated for its effects on tubulin polymerisation (Figure 7).
# Figure 7. The effect of Deac-SS-Biotin (9) on tubulin polymerisation. […] The reaction was monitored at 37 °C.
# First, 96-well plate was incubated with […] of inhibitors in various concentrations at 37 °C for 1 min. Then […] of the tubulin reaction mix was added. The samples were mixed well, and tubulin assembly was monitored (emission wavelength of 420 nm; excitation wavelength pf 360 nm) at 1 min intervals for 90 min at 37 °C using a plate reader (FAS-Calibur, BD Biosciences, USA).
# [8] = test system: mouse fibroblasts L929 cells; type: cell-based; conditions: MTT, 72 h incubation, normal cells; read-out: IC50 (μM) ± SD L929
# Description: as §2, §1
# [9] = test system: cells over-expressing active legumain (M38L, HCT116); conditions: HCT116 vs HEK293, M4C, SW620; cited from earlier work
# Sequence of porcine brain tubulin (P02554 whole entry): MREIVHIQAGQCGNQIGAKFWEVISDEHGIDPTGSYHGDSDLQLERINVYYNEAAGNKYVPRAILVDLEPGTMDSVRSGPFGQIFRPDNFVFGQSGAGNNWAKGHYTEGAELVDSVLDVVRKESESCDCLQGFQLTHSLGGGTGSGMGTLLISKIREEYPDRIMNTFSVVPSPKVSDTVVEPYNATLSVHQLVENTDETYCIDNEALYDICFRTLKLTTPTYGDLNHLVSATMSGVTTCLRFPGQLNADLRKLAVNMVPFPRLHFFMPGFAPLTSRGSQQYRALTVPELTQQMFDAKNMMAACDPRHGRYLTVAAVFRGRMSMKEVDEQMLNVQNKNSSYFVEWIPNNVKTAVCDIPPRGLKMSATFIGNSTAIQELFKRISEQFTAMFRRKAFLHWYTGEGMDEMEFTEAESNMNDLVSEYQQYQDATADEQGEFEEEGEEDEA
# Sequence of porcine brain tubulin (P02550 whole entry): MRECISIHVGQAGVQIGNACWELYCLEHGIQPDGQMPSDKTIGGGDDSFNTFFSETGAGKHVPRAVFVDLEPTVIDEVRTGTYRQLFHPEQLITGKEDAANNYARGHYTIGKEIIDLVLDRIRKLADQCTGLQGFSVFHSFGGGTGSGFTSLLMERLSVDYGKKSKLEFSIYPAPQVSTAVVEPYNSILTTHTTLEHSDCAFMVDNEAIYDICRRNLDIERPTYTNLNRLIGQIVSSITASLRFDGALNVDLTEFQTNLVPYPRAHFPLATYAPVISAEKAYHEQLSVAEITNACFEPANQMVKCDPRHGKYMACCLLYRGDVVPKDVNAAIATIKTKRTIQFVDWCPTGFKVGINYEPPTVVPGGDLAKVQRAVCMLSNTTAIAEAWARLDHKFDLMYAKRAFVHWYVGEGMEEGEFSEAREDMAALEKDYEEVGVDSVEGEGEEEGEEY
Compound,IC50 [4],IC50 [5],IC50 [6],IC50 [8],other results
"2-((2-((((S)-2,3,4,10-tetramethoxy-9-oxo-5,6,7,9-tetrahydrobenzo[a]heptalen-7-yl)carbamoyl)oxy)ethyl)disulfanyl)ethyl 5-((3aS,4S,6aR)-2-oxohexahydro-1H-thieno[3,4-d]imidazol-4-yl)pentanoate [Compound 9]",0.085 ± 0.008 µM,0.124 ± 0.011 µM,0.108 ± 0.01 µM,4.22 ± 0.102 µM,"cell viability ([1]; A549, compound at 2-fold IC50, biotin 0.075 μM): 23.6%; cell viability ([1]; A549, compound at 2-fold IC50, biotin 0.60 μM): 68.9%; cell viability ([1]; A549, compound at 2-fold IC50, in the absence of biotin): 17.7%; peak area and peak height (HPLC stability) [2]: nearly remained unchanged; Deac released ([3]; PBS pH 7.2–7.4, in the presence of 5, 10, and 20 μM DTT, within 8 h, 37 °C): more than 70%; Deac released ([3]; blank PBS (pH 7.2–7.4, without DTT), within 24 h, 37 °C): almost none; anti-tubulin polymerisation activity after coincubation with DTT ([7]; compound at 5 µM and DTT at 10 µM): strong anti-tubulin polymerisation activity; inhibition activity on tubulin polymerisation ([7]; compound at 5 µM, without DTT): weak inhibition activity"
"2-((2-oxo-2–(2-(5-((3aS,4S,6aR)-2-oxohexahydro-1H-thieno[3,4-d]imidazol-4-yl)pentanoyl)hydrazinyl)ethyl)thio)-N-((S)-2,3,4,10-tetramethoxy-9-oxo-5,6,7,9-tetrahydrobenzo[a]heptalen-7-yl)acetamide [Compound 11c]",1.31 ± 0.092 µM,1.95 ± 0.071 µM,2.17 ± 0.1 µM,10.7 ± 0.2 µM,
"4-oxo-4–(2-(5-((3aS,4S,6aR)-2-oxohexahydro-1H-thieno[3,4-d]imidazol-4-yl)pentanoyl)hydrazinyl)-N-((S)-2,3,4,10-tetramethoxy-9-oxo-5,6,7,9-tetrahydrobenzo[a]heptalen-7-yl)butanamide [Compound 11a]",6.52 ± 0.19 µM,7.52 ± 0.12 µM,3.5 ± 0.15 µM,> 20 µM,
"5-((3aS,4S,6aR)-2-oxohexahydro-1H-thieno[3,4-d]imidazol-4-yl)-N-((S)-2,3,4,10-tetramethoxy-9-oxo-5,6,7,9-tetrahydrobenzo[a]heptalen-7-yl)pentanamide [Compound 10]",4.85 ± 0.13 µM,4.9 ± 0.18 µM,6.35 ± 0.11 µM,15.8 ± 0.31 µM,"Deac released ([3]; PBS pH 7.2–7.4, after 24 h incubation in the presence or absence of 20 μM DTT): < 1.0%"
"5-oxo-5–(2-(5-((3aS,4S,6aR)-2-oxohexahydro-1H-thieno[3,4-d]imidazol-4-yl)pentanoyl)hydrazinyl)-N-((S)-2,3,4,10-tetramethoxy-9-oxo-5,6,7,9-tetrahydrobenzo[a]heptalen-7-yl)pentanamide [11 b]",2.23 ± 0.12 µM,2.29 ± 0.09 µM,6.94 ± 0.16 µM,13.4 ± 0.18 µM,
5: legumain-cleavable peptide (Suc-Ala-Ala-Asn-Val)-colchicine (Suc-AANV-colchicine) [Compound 5],,,,,toxicity to cells over-expressing active legumain compared to cells expressing low levels of active or only prolegumain [9]: more toxic
"O=C(O)CCCC[C@@H]1SC[C@@H]2NC(=O)N[C@@H]21 [biotin, reference compound]",,,,,"cytotoxicity alone ([1]; A549, biotin alone at various concentrations): no cytotoxicity"

# From publication PMC8725855 (Journal of Enzyme Inhibition and Medicinal Chemistry, 2021)
